Reference: patent publication US20200178534A1, “INDUCTION OF FLORAL DEVELOPMENT IN PLANTS” (priority 2016, published 2020)

How the values were obtained:
[1] = system: Arabidopsis thaliana, ecotype Columbia (Col-0) and attps7 knockout mutants; test: Appearance of flower buds / flowering time after spraying T6P signalling precursor; type: in vivo; parameters: key to flower bud had appeared (individual plant N): X: shown as crosses in highlighted boxes; conditions: for flower bud had appeared (individual plant N): 1 mM spray, day 5 after spraying
Method: In both cases it is possible to advance the development of the flowering inflorescence by several centimetres and advance flowering time by up to a week.
(§1) Seeds of Arabidopsis thaliana, ecotype Columbia (Col-0) and attps7 knockout mutants were surface-sterilized with 70% of ethanol for 2 min and 75% household bleach for 7 min, and grown on nutrient agar media (0.5×Murashige and Skoog plus Gamborg's vitamins (Sigma). 0.5% Sucrose and 0.7% Agar) in Petri plates. Seeds on the Petri plates were placed in a growth chamber (22° C., 150 μmol m^−2 s^−1, 16-h day). Seven days after plating, seedlings were transferred to pots of soil containing Rothamsted standard compost mix and full nutrition (one seedling per pot). Forty plants per A. thaliana type (n=40 Col-0, n=40 TPS7_3, n=40 TPS7_4.15) were grown at 22CC, 250 μmol m^−2 s^−1 irradiance, 16-h day. Eight days after sowing (DAS) plants were sprayed with 0.5 ml 1 mM oNPE-T6P (ortho-nitrphenyl)ethyl trehalose 6-phosphate dissolved in distilled water with the addition of 0.1% of Tween20 during the middle of the mid-photoperiod. Twenty-four hours after spraying (9 DAS), plants sprayed with 1 mM oNPE-T6P were exposed to 600 μmol m^−2 s^−1 irradiance for 1 h to release T6P from oNPE-T6P. Spraying was repeated at 12 and 16 DAS.
First, the appearance of the flower bud was quicker in plants sprayed with oNPE-T6P than with water.

[2] = system: Arabidopsis thaliana, ecotype Columbia (Col-0) and attps7 knockout mutants; test: Height of the flowering inflorescence at 26 DAS after spraying T6P signalling precursor; type: in vivo; conditions: versus water control
Method: Right hand bars in each panel represent plants treated with 1 mM oNPE. Left hand bars in each panel represent plants treated with water (controls). […] This reflects the advancement of flowering by oNPE.
as §1
Height of the flowering inflorescence was then measured at 26 DAS. […]

With `CC(OP(=O)(OC[C@H]1O[C@H](O[C@H]2O[C@H](CO)[C@@H](O)[C@H](O)[C@H]2O)[C@H](O)[C@@H](O)[C@@H]1O)OC(C)c1ccccc1[N+](=O)[O-])c1ccccc1[N+](=O)[O-]` (stereo partly drawn) [oNPE-T6P, 6-O-bis[1-(2-nitrophenyl)-ethoxyphosphoryl]-D-trehalose] the “flower bud had appeared (individual plant N)” value (from here on “flower bud had appeared”) ([1]; Col-0) was “X”, the “flower bud had appeared” value ([1]; TPS7_3 mutant) was “X” and the “flower bud had appeared” value ([1]; TPS7_4.15 mutant) was “X”. The “appearance of the flower bud compared with water” value ([1]; plants sprayed with 1 mM, versus water) was “quicker”, the “height of the flowering inflorescence” value ([2]; Col-0, 1 mM) was “taller inflorescences” and the “height of the flowering inflorescence” value ([2]; tps7, 1 mM) was “taller inflorescences”.
